Legend:
[1] = test system: Puccinia recondita f. Sp. Tritici; experiment: Fungicidal activity against Puccinia recondita f. sp. tritici / wheat / leaf disc preventative (brown rust); type: in vivo; settings: foliar, 200 ppm in the applied formulation, wheat leaf segments, preventative, compared to untreated control leaf disks, read-out: disease control
Procedure: Leaf disks or leaf segments of various plant species are cut from plants grown in a greenhouse. The cut leaf disks or segments are placed in multiwell plates (24-well format) onto water agar. The leaf disks are sprayed with a test solution before (preventative) or after (curative) inoculation. Compounds to be tested are prepared as DMSO solutions (max. 10 mg/ml) which are diluted to the appropriate concentration with 0.025% Tween20 just before spraying. The inoculated leaf disks or segments are incubated under defined conditions (temperature, relative humidity, light, etc.) according to the respective test system. A single evaluation of disease level is carried out 3 to 14 days after inoculation, depending on the pathosystem. Percent disease control relative to the untreated check leaf disks or segments is then calculated.
Fungicidal Activity Against Puccinia recondita f. Sp. Tritici/Wheat/Leaf Disc Preventative (Brown Rust)
Wheat leaf segments cv. Kanzler were placed on agar in multiwell plates (24-well format) and sprayed with the formulated test compound diluted in water. The leaf disks were inoculated with a spore suspension of the fungus 1 day after application. The inoculated leaf segments were incubated at 19° C. and 75% relative humidity (rh) under a light regime of 12 hours light/12 hours darkness in a climate cabinet and the activity of a compound was assessed as percent disease control compared to untreated when an appropriate level of disease damage appears in untreated check leaf segments (7 to 9 days after application).
The following compounds at 200 ppm in the applied formulation give at least 80% disease control in this test when compared to untreated control leaf disks under the same conditions, which show extensive disease development.

[2] = test system: Glomerella lagenarium (Colletotrichum lagenarium); experiment: Fungicidal activity against Glomerella lagenarium (Colletotrichum lagenarium) liquid culture / cucumber / preventative (anthracnose); type: cell-based; settings: Colletotrichum orbiculare; 20 ppm in the applied formulation; liquid culture (PDB), growth inhibition measured photometrically after 3 to 4 days; compared to untreated control; read-out: disease control
Method in brief: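 Percent activity against the untreated check was derived from photometric growth measurements made 2 to 7 days after conidia in potato dextrose broth were combined with compound at 20 ppm. Cultures were kept dark at 24 °C and 96% humidity.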

| Structure (SMILES) | pest or weed control at 200 ppm [1] [%] | inhibition of growth at 20 ppm [2] [%] |
| --- | --- | --- |
| CCCON(Cc1ccc(-c2noc(C(F)(F)F)n2)cc1)C(=O)C1(C#N)CC1 [Compound 1.313, 1-cyano-N-propoxy-N-[[4-[5-(trifluoromethyl)-1,2,4-oxadiazol-3-yl]phenyl]methyl]-cyclopropane-carboxamide] | ≥ 80 | ≥ 80 |
| CON(Cc1ccc(-c2noc(C(F)(F)F)n2)cc1)C(=O)c1cccc2nnsc12 [Compound 1.67, N-methoxy-N-[[4-[5-(trifluoromethyl)-1,2,4-oxadiazol-3-yl]phenyl]methyl]-1,2,3-benzothiadiazole-7-carboxamide] | ≥ 80 | ≥ 80 |
| O=C(C1CCC1)N(Cc1ccc(-c2noc(C(F)(F)F)n2)cc1)CC1CCCO1 (stereo not shown) [Compound 1.424, N-(tetrahydrofuran-2-ylmethyl)-N-[[4-[5-(trifluoromethyl)-1,2,4-oxadiazol-3-yl]phenyl]methyl]-cyclobutane-carboxamide] | ≥ 80 | ≥ 80 |
| O=C(Cc1cccnc1)N(Cc1ccc(-c2noc(C(F)(F)F)n2)cc1)CC1CC1 [Compound 1.214, N-(cyclopropylmethyl)-2-(3-pyridyl)-N-[[4-[5-(trifluoromethyl)-1,2,4-oxadiazol-3-yl]phenyl]methyl]-acetamide] | ≥ 80 | ≥ 80 |
| CC1(C(=O)N(Cc2ccc(-c3noc(C(F)(F)F)n3)cc2)C2CC2)CC1(Cl)Cl (stereo not shown) [Compound 1.107, 2,2-dichloro-N-cyclopropyl-1-methyl-N-[[4-[5-(trifluoromethyl)-1,2,4-oxadiazol-3-yl]phenyl]methyl]-cyclopropane-carboxamide] | ≥ 80 | ≥ 80 |
| O=C(c1ccoc1)N(Cc1ccc(-c2noc(C(F)(F)F)n2)cc1)CC1CCCO1 (stereo not shown) [Compound 1.449, N-(tetrahydrofuran-2-ylmethyl)-N-[[4-[5-(trifluoromethyl)-1,2,4-oxadiazol-3-yl]phenyl]methyl]-furan-3-carboxamide] | ≥ 80 | ≥ 80 |
| CC(C)(CCl)C(=O)N(Cc1ccc(-c2noc(C(F)(F)F)n2)cc1)CC1CC1 [Compound 1.219, 3-chloro-N-(cyclopropylmethyl)-2,2-dimethyl-N-[[4-[5-(trifluoromethyl)-1,2,4-oxadiazol-3-yl]phenyl]methyl]-propanamide] | ≥ 80 | ≥ 80 |
| C#CCN(Cc1ccc(-c2noc(C(F)(F)F)n2)cc1)C(=O)c1cc(Cl)ccc1O [Compound 1.184, 5-chloro-2-hydroxy-N-prop-2-ynyl-N-[[4-(5-(trifluoromethyl)-1,2,4-oxadiazol-3-yl]phenyl]methyl]-benzamide] | ≥ 80 | ≥ 80 |
| O=C(C1CC1(F)F)N(Cc1ccc(-c2noc(C(F)(F)F)n2)cc1)CC1CCCO1 (stereo not shown) [Compound 1.414, 2,2-difluoro-N-(tetrahydrofuran-2-ylmethyl)-N-[[4-[5-(trifluoromethyl)-1,2,4-oxadiazol-3-yl]phenyl]methyl]-cyclopropane-carboxamide] | ≥ 80 | ≥ 80 |
| CCCON(Cc1ccc(-c2noc(C(F)(F)F)n2)cc1)C(=O)C1CCCCO1 (stereo not shown) [Compound 1.283, N-propoxy-N-[[4-[5-(trifluoromethyl)-1,2,4-oxadiazol-3-yl]phenyl]methyl]-tetrahydropyran-2-carboxamide] | ≥ 80 | ≥ 80 |
| CCC(=O)N(Cc1ccc(-c2noc(C(F)(F)F)n2)cc1)OCc1ccc(Cl)cc1 [Compound 1.550, N-[(4-chlorophenyl)-methoxy]-N-[[4-[5-(trifluoromethyl)-1,2,4-oxadiazol-3-yl]phenyl]methyl]-propanamide] | ≥ 80 | ≥ 80 |
| CON(C(=O)C1CC1(F)F)C(C)c1ccc(-c2noc(C(F)(F)F)n2)cc1 (stereo not shown) [Compound 1.251, 2,2-difluoro-N-methoxy-N-[1-[4-[5-(trifluoromethyl)-1,2,4-oxadiazol-3-yl]phenyl]ethyl]-cyclopropane-carboxamide] | ≥ 80 | ≥ 80 |
| C=CC(=O)N(Cc1ccc(-c2noc(C(F)(F)F)n2)cc1)CC1CCCO1 (stereo not shown) [Compound 1.430, N-(tetrahydrofuran-2-ylmethyl)-N-[[4-[5-(trifluoromethyl)-1,2,4-oxadiazol-3-yl]phenyl]methyl]-prop-2-enamide] | ≥ 80 | ≥ 80 |
| CC(=O)NCC(=O)N(Cc1ccc(-c2noc(C(F)(F)F)n2)cc1)Cc1ccco1 [Compound 1.461, 2-acetamido-N-(2-furylmethyl)-N-[[4-[5-(trifluoromethyl)-1,2,4-oxadiazol-3-yl]phenyl]methyl]-acetamide] | ≥ 80 | ≥ 80 |
| C#CCN(C)C(=O)N(CC)Cc1ccc(-c2noc(C(F)(F)F)n2)cc1 [Compound 3.96, 1-ethyl-3-methyl-3-prop-2-ynyl-1-[[4-[5-(trifluoromethyl)-1,2,4-oxadiazol-3-yl]phenyl]methyl]urea] | ≥ 80 | ≥ 80 |
| O=C(c1ccc(Cl)cc1)N(Cc1ccc(-c2noc(C(F)(F)F)n2)cc1)C1CC1 [Compound 1.142, 4-chloro-N-cyclopropyl-N-[[4-[5-(trifluoromethyl)-1,2,4-oxadiazol-3-yl]phenyl]methyl]-benzamide] | ≥ 80 | ≥ 80 |
| CCCON(Cc1ccc(-c2noc(C(F)(F)F)n2)cc1)C(=O)COC(C)=O [Compound 1.306, [2-oxo-2-[propoxy-[[4-[5-(trifluoromethyl)-1,2,4-oxadiazol-3-yl]phenyl]methyl]-amino]ethyl] acetate] | ≥ 80 | ≥ 80 |
| CCCCC(=O)N(Cc1ccc(-c2noc(C(F)(F)F)n2)cc1)CC1CCCO1 (stereo not shown) [Compound 1.453, N-(tetrahydrofuran-2-ylmethyl)-N-[[4-[5-(trifluoromethyl)-1,2,4-oxadiazol-3-yl]phenyl]methyl]-pentanamide] | ≥ 80 | ≥ 80 |
| C#CCOC(C(=O)N(Cc1ccc(-c2noc(C(F)(F)F)n2)cc1)OC)c1ccc(Cl)cc1 (stereo not shown) [Compound 1.69, 2-(4-chlorophenyl)-N-methoxy-2-prop-2-ynoxy-N-[[4-[5-(trifluoromethyl)-1,2,4-oxadiazol-3-yl]phenyl]methyl]-acetamide] | ≥ 80 | ≥ 80 |
| C=CCN(Cc1ccc(-c2noc(C(F)(F)F)n2)cc1)C(=O)CCl [Compound 1.482, N-allyl-2-chloro-N-[[4-[5-(trifluoromethyl)-1,2,4-oxadiazol-3-yl]phenyl]methyl]-acetamide] | ≥ 80 | ≥ 80 |
| CC#CC(=O)N(Cc1ccc(-c2noc(C(F)(F)F)n2)cc1)CC1CCCO1 (stereo not shown) [Compound 1.410, N-(tetrahydrofuran-2-ylmethyl)-N-[[4-[5-(trifluoromethyl)-1,2,4-oxadiazol-3-yl]phenyl]methyl]-2-ynamide] | ≥ 80 | ≥ 80 |
| C#CC(=O)N(Cc1ccc(-c2noc(C(F)(F)F)n2)cc1)OCCC [Compound 1.305, N-propoxy-N-[[4-[5-(trifiuoromethyl)-1,2,4-oxadiazol-3-yl]phenyl]methyl]-prop-2-ynamide] | ≥ 80 | ≥ 80 |
| CC#CC(=O)N(Cc1ccc(-c2noc(C(F)(F)F)n2)cc1)C(C)CC (stereo not shown) [Compound 1.367, N-sec-butyl-N-[[4-[5-(trifluoromethyl)-1,2,4-oxadiazol-3-yl]phenyl]methyl]-but-2-ynamide] | ≥ 80 | ≥ 80 |
| CC=CC(=O)N(OC)C(C)c1ccc(-c2noc(C(F)(F)F)n2)cc1 (stereo not shown) [Compound 1.250, N-methoxy-N-[1-[4-[5-(trifluoromethyl)-1,2,4-oxadiazol-3-yl]phenyl]ethyl]but-2-enamide] | ≥ 80 | ≥ 80 |
| O=C(N(Cc1ccc(-c2noc(C(F)(F)F)n2)cc1)CC1CCCO1)C1(F)CC1 (stereo not shown) [Compound 1.436, 1-fluoro-N-(tetrahydrofuran-2-ylmethyl)-N-[[4-[5-(trifluoromethyl)-1,2,4-oxadiazol-3-yl]phenyl]methyl]-cyclopropane-carboxamide] | ≥ 80 | ≥ 80 |
| CCCON(Cc1ccc(-c2noc(C(F)(F)F)n2)cc1)C(=O)COC [Compound 1.287, 2-methoxy-N-propoxy-N-[[4-[5-(trifluoromethyl)-1,2,4-oxadiazol-3-yl]phenyl]methyl]-acetamide] | ≥ 80 | ≥ 80 |

Source: patent US11180462B2, “Microbiocidal oxadiazole derivatives” (SYNGENTA PARTICIPATIONS AG, priority 2015, dated 2021)
